From patent publication US20230279025A1, “KRAS G12D INHIBITORS” (Mirati Therapeutics, Inc., priority 2020, published 2023) come the findings set out here.

One may read the IC50 as the concentration that gives 50% inhibition. High values mean weaker potency, low ones greater potency. The Kd is the free concentration of one partner at which half of the binding sites on the other are occupied at equilibrium, for simple one-to-one binding. Higher therefore signals lower affinity.

The target of assay [1] is T1, KRas G12D (Homo sapiens (Human), UniProt P01116, G12D). As to the kind of experiment: KRas G12D Binding Assay (TR-FRET displacement of Cy5 labelled tracer). Particulars: GDP-loaded KRAS G12D (amino acids 1:169), 60 minute incubation at 22° C. The procedure: After a 60 minute incubation at 22° C., the reaction was measured using a PerkinElmer EnVision multimode plate reader via TR-FRET dual wavelength detection, and the percent of control (POC) calculated using a ratiometric emission factor. […] The POC values were fit to a 4-parameter logistic curve and the IC50 value was determined as the concentration where the curve crosses 50 POC.
ND stands for “not determined.”
For orientation: Time-resolved FRET reads energy transfer from a long-lived donor to a nearby acceptor.
Target sequence in this assay (P01116 other isoform, or with tags, fused parts or gaps G12D): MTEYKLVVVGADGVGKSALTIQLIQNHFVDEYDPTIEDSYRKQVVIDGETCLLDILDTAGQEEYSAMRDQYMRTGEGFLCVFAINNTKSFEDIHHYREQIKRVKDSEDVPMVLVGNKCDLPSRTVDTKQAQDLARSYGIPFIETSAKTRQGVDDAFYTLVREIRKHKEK

Assay [2] has as its target T1, KRas G12D. As to the kind of experiment: KRas G12D Surface Plasmon Resonance (SPR) Binding Assay. Particulars: Biacore T200, immobilized biotinylated KRAS protein, 1:1 binding model. As to the method: Briefly, 1L of 1.05X HBS-Mg buffer (262.5 mM Bioultra Hepes, pH 7.5, 157.5 mM NaCl, 105 mM MgCl2, 0.525 mM TCEP, 0.0305% Brij-35) was prepared and filter sterilized using a 0.22 μm bottle top filter. Approximately 50 mL of 1.05X HBS-Mg buffer was removed and saved for future dilutions. A 50 mL aliquot of DMSO (Sigma Aldrich DMSO Lot. #SHBK2079) was added and continued to stir for 10 minutes, creating the final 1.0X HBS-Mg buffer (250 mM Bioultra Hepes pH 7.5, 150 mM NaCl, 100 mM MgCl2, 0.5 mM TCEP, 0.03% Brij-35).
Biacore T200 instrument was primed using 1.0X HBS-Mg buffer before docking a GE Streptavidin (SA) chip and then primed two additional times prior to beginning the immobilization step. All immobilized protein mixtures were created using 3-5 mg/mL Biotinylated Avidin-tagged KRAS protein using the following immobilization settings: SA chip type, 1 flow cells per cycle, 720 second contact time, and 5 ul/min flow rate. Normalization of the detector was also performed during the immobilization step using the GE BiaNormalize solution.
All compounds were diluted to 10 mM in 100% DMSO prior to being diluted 20X in 1.05X buffer. Another 10X dilution was created using 1.0X buffer prior to performing a series of 3X dilutions to create a compound concentration curve using the following assay settings: 20C analysis temperature, General Settings=10 Hz data collection rate and multi-detection; Assay Steps=all set to LMW kinetics; Cycle Types=LMW kinetics (60 s contact time, 120 s dissociation time, 100 ul/min flow rate, extra wash after injection with 50% DMSO, flow path 1,2,3,4); Flow path detection=2-1, 4-3). Data evaluation was performed using the Biacore T200 Evaluation software and data fit to 1:1 binding model. ND=not determined.
Target sequence in this assay (P01116-2 other isoform, or with tags, fused parts or gaps G12D): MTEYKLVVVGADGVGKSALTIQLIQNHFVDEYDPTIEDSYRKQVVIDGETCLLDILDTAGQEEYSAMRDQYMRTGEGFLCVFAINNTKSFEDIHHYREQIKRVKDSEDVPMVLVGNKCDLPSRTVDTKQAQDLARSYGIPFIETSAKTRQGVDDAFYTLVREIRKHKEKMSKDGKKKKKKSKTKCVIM
For orientation: SPR reads the build-up and loss of mass on a sensor chip optically.

Regarding `CN1CCC[C@H]1COc1nc(N2C[C@H]3CC[C@@H](C2)N3)c2cnc(-c3cccc4c3CCCC4)c(F)c2n1` [Example 21, 4-((1R,5S)-3,8-diazabicyclo[3.2.1]octan-3-yl)-8-fluoro-2-(((S)-1-methylpyrrolidin-2-yl)methoxy)-7-(5,6,7,8-tetrahydronaphthalen-1-yl)pyrido[4,3-d]pyrimidine], the IC50 in assay [1] turned out to be 263 nM. The Kd in assay [2] was 448 nM.
`Oc1cc(-c2ncc3c(N4C[C@H]5CC[C@@H](C4)N5)nc(OCCCN4CCOCC4)nc3c2F)c2ccccc2c1` [Example 22, 4-(4-((1R,5S)-3,8-diazabicyclo[3.2.1]octan-3-yl)-8-fluoro-2-(3-morpholinopropoxy)pyrido[4,3-d]pyrimidin-7-yl)naphthalen-2-ol] returned an IC50 in assay [1] of 50.3 nM. Moreover, the affinity in assay [2], expressed as Kd, was 19.6 nM.
For the compound `Oc1cc(-c2ncc3c(N4C[C@H]5CC[C@@H](C4)N5)nc(OCCN4CCOCC4)nc3c2F)c2ccccc2c1` [Example 25, 4-(4-((1R,5S)-3,8-diazabicyclo[3.2.1]octan-3-yl)-8-fluoro-2-(2-morpholinoethoxy)pyrido[4,3-d]pyrimidin-7-yl)naphthalen-2-ol], the IC50 in assay [1] worked out at 338 nM. In assay [2], this compound gave a Kd of 270 nM.
In assay [1], `CC(C)N1CCC[C@H]1COc1nc(N2C[C@H]3CC[C@@H](C2)N3)c2cnc(-c3cccc4cccc(Cl)c34)c(F)c2n1` [Example 29, 4-((1R,5S)-3,8-diazabicyclo[3.2.1]octan-3-yl)-7-(8-chloronaphthalen-1-yl)-8-fluoro-2-(((S)-1-isopropylpyrrolidin-2-yl)methoxy)pyrido[4,3-d]pyrimidine] displayed an IC50 of 160 nM. Further, the affinity in assay [2], expressed as Kd, was 170 nM.
In the case of `Fc1c(-c2cncc3cccc(Cl)c23)ncc2c(N3C[C@H]4CC[C@@H](C3)N4)nc(OCC34CCCN3CCC4)nc12` [Example 33, 4-((1R,5S)-3,8-diazabicyclo[3.2.1]octan-3-yl)-7-(5-chloroisoquinolin-4-yl)-8-fluoro-2-((tetrahydro-1H-pyrrolizin-7a(5H)-yl)methoxy)pyrido[4,3-d]pyrimidine bis(2,2,2-trifluoroacetate)], the IC50 in assay [1] amounted to 21.1 nM. This compound also registered a dissociation constant Kd in assay [2] of 71.7 nM.
The corresponding values for `CO[C@@H]1C[C@@H](COc2nc(N3C[C@H]4CC[C@@H](C3)N4)c3cnc(-c4cccc5cccc(Cl)c45)c(F)c3n2)N(C)C1` [Example 34, 4-((1R,5S)-3,8-diazabicyclo[3.2.1]octan-3-yl)-7-(8-chloronaphthalen-1-yl)-8-fluoro-2-(((2S,4R)-4-methoxy-1-methylpyrrolidin-2-yl)methoxy)pyrido[4,3-d]pyrimidine] are 135 nM and 119 nM.
Take `OCC(CO)COc1nc(N2C[C@H]3CC[C@@H](C2)N3)c2cnc(-c3cccc4cccc(Cl)c34)c(F)c2n1` [Example 35, 2-(((4-((1R,5S)-3,8-diazabicyclo[3.2.1]octan-3-yl)-7-(8-chloronaphthalen-1-yl)-8-fluoropyrido[4,3-d]pyrimidin-2-yl)oxy)methyl)propane-1,3-diol]: the IC50 in assay [1] turned out to be 475 nM. In addition, the Kd in assay [2] was 1380 nM.
The like results for `Oc1cc(-c2ncc3c(N4C[C@H]5CC[C@@H](C4)N5)nc(N4CC(O)C4)nc3c2F)c2ccccc2c1` [Example 37, 1-(4-((1R,5S)-3,8-diazabicyclo[3.2.1]octan-3-yl)-8-fluoro-7-(3-hydroxynaphthalen-1-yl)pyrido[4,3-d]pyrimidin-2-yl)azetidin-3-ol bis(2,2,2-trifluoroacetate)] were, in that order, 405 nM and 494 nM.
The corresponding values for `Oc1cc(-c2ncc3c(N4C[C@H]5CC[C@@H](C4)N5)nc(OCCCC(F)(F)F)nc3c2F)c2ccccc2c1` [Example 38, 4-(4-((1R,5S)-3,8-diazabicyclo[3.2.1]octan-3-yl)-8-fluoro-2-(4,4,4-trifluorobutoxy)pyrido[4,3-d]pyrimidin-7-yl)naphthalen-2-ol] are 174 nM and 750 nM.
